Experimental data reported in US11767296B2, “Heteroaryl compounds as kinase inhibitor” (FUJIAN HAIXI PHARMACEUTICALS CO., LTD, priority 2018, dated 2023).
pIC50: −log10 of the molar value.

Experiments:
[1] = test system: NFS-60 cells; assay: NFS-60 cell assay (CCK proliferation, M-CSF stimulated); type: cell-based; conditions: Mus musculus, compound 0.5 uM, 72 h, 40 ng/mL M-CSF, read-out: inhibition ratio % (NFS-60 cell proliferation)
Procedure: Example 54: NFS-60 Cell Assay
1. Experimental Materials
Mouse Myelogenous Leukemia Cells (NFS-60)
Using DMSO to dissolve, and the required concentration was prepared with full culture medium without factors.
Penicillin-streptomycin: TRANS
Mouse M-CSF/CSF-1 Protein: Sino Biological Inc, No. 51112-MNAH
M-CSF: Qilu Pharmaceutical co., Ltd.
The logarithmic growth phase of NFS-60 cells (1640+10% FBS+40 ng/ml M-CSF+1% Penicillin-streptomycin) were centrifuged (1000 r/min) and cultured in a factor-free medium at 37° C., 5% CO2 for 24 hours. Centrifugating (1000 r/min), the culture medium was replaced by new culture medium including 40 ng/mL factors, and inoculated on 96-well plate by 2*10^4 cells/mL, 100 μL/hole. After 16 hours, the tested compounds were added 10 μL/hole, 3 duplicate holes per compound, 37° C., 5% CO2, continue to cultured for 72 h. Then 10 μL CCK reagent was added to each hole. After incubation for 4 hours, the absorbance of each hole was measured at 450 nm wavelength. According to Formula: Inhibitory rate (%)=(1-OD value of test pore/OD value of solvent control pore)×100% 3. Experimental Results The experimental results of the inhibition of NFS-60 cell proliferation by the compounds prepared in Example 3-52, 0.5 uM, are shown in the following table: […]

[2] = target: T1, CSF-1R (Homo sapiens, UniProt P07333); assay: CSF-1R kinase assay (HTRF kinEASE TK); type: biochemical; conditions: ATP 2.5 uM, enzyme 0.012 ng/ul, read-out: In vitro inhibitory activity of CSF-1R IC50
T1 construct: purchased Invitrogen PV3249
Procedure: Example 53: CSF-1R Kinase Assay
I. Materials and Instruments
• 2104 EnVision® Multilabel Reader (PerkinElmer) • OptiPlate-384, White Opaque 384-well MicroPlate (Cat.6007290, PerkinElmer) • HTRF kinEASE TK (Cat.62TKOPEC, Cisbio) • CSF-1R(Cat. PV3249, Invitrogen) • ATP 10 mM (Cat. PV3227, Invitrogen) • DTT 1 M (Cat. D5545, Sigma) • MgCl2 1 M (Cat. M8266, Sigma) • MnCl2 1 M (Cat.244589. Sigma)
II. Experimental Procedure
Substrate-TK and ATP were diluted to 5 times of the reaction concentration by 1×Kinase Buffer. CSF1R enzyme was diluted to 5×enzyme solution by 1×kinase buffer. Sa-XL665 was diluted to 4×Sa-XL665 solution by Detection Buffer. 100×TK-Ab-Cryptate Solution TK-Ab-Cryptate was diluted to 100×TK-Ab-Cryptate solution by Detection Buffer. 2. Experimental Procedure After all reagents had been prepared according to the above method, except enzymes, the sample was added after equilibrium to room temperature. • a. Firstly, 2.5% DMSO solution was prepared by using 1×kinase buffer (the high concentration of DMSO will affect the reaction and control the final concentration of DMSO to 1%). Then the compounds were diluted by 2.5% DMSO solution corresponding to the enzyme. The screening concentration of the compounds was 4 times gradient dilution from 1000 nM, and 8 concentrations. In addition to the control pore, 4 microlitres of diluted solution containing 2.5% DMSO were added to the reaction pore and 4 microlitres of previously prepared solution containing 2.5% DMSO were added to the control pore. • b. 2 microlitres of previously prepared TK-biotin substrate solution was added to all reaction pore (the amount of substrate used for enzyme screening is shown in Table 15). • c. Adding 2 microlitres of CSF1R enzyme solution of corresponding concentration (the amount of enzyme is shown in Table 15) to all reaction pore except negative pore. The negative pore is supplemented with 2 microlitres of enzyme corresponding to 1 xkinase buffer. After mixing, the compound and enzyme can be fully combined by incubating at room temperature for 10 minutes. • d. Enzyme reaction was initiated by adding 2 microlitres ATP solution of corresponding concentration to all reaction pore. The reaction time was 30 minutes (the corresponding ATP concentration and reaction time at enzyme screening were shown in Table 15). • e. Preparing the test solution 5 minutes before the end of kinase reaction. Streptavidin-XL665 and TK antibody europium cryptate (1:100) were prepared with detection buffer in the kit (the corresponding concentration of detection reagent for enzyme screening is shown in Table 15). • f. After the kinase reaction, 5 microlitres of diluted Streptavidin-XL665 were added to all reaction pore, mixing, and then the diluted TK antibody europium cryptate solution was added immediately. • g. After 1 hour reaction at room temperature, the fluorescence signals (320 nm stimulation, 665 nm, 615 nm emission) were detected by ENVISION (Perkinelmer) instrument. The inhibition rate of each pore was calculated by full active pore and background signal pore, and the average value of complex pore was obtained. Meanwhile, the half inhibitory activity (IC50) of each compound was fitted by professional drawing analysis software PRISM 5.0. The Flow Chart of the Experiment is as Follows:
3. Data Analysis Emission Ratio (ER)=665 nm Emission signal/615 nm Emission signal Inhibitory rate=(ERpositive−ERsample)/(ERpositive−ERnegative)*100% Using Graphpad Prism 5 and log (inhibitor) vs. normalized response to fit IC50 curve and calculate IC50 value. The IC50 data of the compounds prepared in Representative Examples 3-52 are as follows (Table 18): […]

T1 sequence (P07333 20-972): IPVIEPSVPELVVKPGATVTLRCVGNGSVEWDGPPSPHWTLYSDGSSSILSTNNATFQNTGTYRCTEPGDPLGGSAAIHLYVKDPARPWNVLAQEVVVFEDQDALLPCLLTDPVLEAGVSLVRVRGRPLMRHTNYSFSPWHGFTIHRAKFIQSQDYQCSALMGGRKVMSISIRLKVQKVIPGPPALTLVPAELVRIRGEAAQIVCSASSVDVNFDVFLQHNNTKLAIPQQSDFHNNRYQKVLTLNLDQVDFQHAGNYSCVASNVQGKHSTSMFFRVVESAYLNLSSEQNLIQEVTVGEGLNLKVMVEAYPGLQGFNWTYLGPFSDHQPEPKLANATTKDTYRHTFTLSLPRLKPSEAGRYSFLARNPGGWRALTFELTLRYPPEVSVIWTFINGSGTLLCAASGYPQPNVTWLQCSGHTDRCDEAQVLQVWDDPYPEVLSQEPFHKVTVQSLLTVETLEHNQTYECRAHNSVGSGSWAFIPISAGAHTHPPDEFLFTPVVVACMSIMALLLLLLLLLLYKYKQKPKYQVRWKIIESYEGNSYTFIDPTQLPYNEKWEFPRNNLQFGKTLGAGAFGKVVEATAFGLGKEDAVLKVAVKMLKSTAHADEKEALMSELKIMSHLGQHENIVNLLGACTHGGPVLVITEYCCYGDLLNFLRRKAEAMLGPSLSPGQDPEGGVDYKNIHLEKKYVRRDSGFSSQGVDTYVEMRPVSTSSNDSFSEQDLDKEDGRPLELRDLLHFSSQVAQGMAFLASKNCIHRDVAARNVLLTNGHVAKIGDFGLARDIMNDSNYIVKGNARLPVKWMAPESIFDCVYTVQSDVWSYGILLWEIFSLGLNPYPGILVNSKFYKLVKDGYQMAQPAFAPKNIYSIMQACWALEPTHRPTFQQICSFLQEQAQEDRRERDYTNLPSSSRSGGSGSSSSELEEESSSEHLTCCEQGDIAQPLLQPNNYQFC

| pIC50 [2] | Compound | inhibition at 0.5 µM [1] [%] |
| --- | --- | --- |
|  | C[C@@H](Oc1cc(-c2cnn(C)c2)cnc1N)c1cccc(NC(=O)c2cccc(S(C)(=O)=O)c2)c1 [Compound 168, (R)-N-(3-(1-((2-amino-5-(1-methyl-1H-pyrazol-4-yl)pyridin-3-yl)oxy)ethyl)phenyl)-3-(methylsulfonyl)benzamide] | ≥ 50 |
|  | C[C@H](Oc1cc(Cl)cnc1N)c1cccc(NC(=O)c2cccc(C3CC3)c2)c1 [Compound 70, (S)-N-(3-(1-((2-amino-5-chloropyridin-3-yl)oxy)ethyl)-phenyl)-3-cyclopropylbenzamide] | ≥ 50 |
| ≥ 7.30 | C[C@H](Oc1cc(Cl)cnc1N)c1cccc(NC(=O)c2cccc(Cl)c2)c1 [Compound 55, (S)-N-(3-(1-((2-amino-5-chloropyridin-3-yl)oxy)ethyl)-phenyl)-3-chlorobenzamide] |  |
| ≥ 7.30 | Cc1ccc(C(=O)Nc2cccc([C@@H](C)Oc3cc(-c4cnn(C)c4)cnc3N)c2)cc1C [Compound 170, (R)-N-(3-(1-((2-amino-5-(1-methyl-1H-pyrazol-4-yl)pyridin-3-yl)oxy)ethyl)phenyl)-3,4-dimethyl benzamide] |  |
| 6.30 to 7.29 | Cc1cccc(NC(=O)Nc2cccc(Oc3cc(Cl)cnc3N)c2)c1 [Compound 331, 1-(3-((2-amino-5-chloropyridin-3-yl)oxy)phenyl)-3-(m-tolyl)urea] |  |
| ≥ 7.30 | Nc1ncc(Cl)cc1OCc1cccc(NC(=O)c2cccc(Cl)c2)c1 [Compound 22, N-(3-(((2-amino-5-chloropyridin-3-yl)oxy)methyl)phenyl)-3-chloro-benzamide] |  |
| 6.30 to 7.29 | CNc1ncc(Cl)cc1OCc1cccc(NC(=O)c2cccc(C)c2)c1 [Compound 236, N-(3-(((5-chloro-2-(methylamino)pyridin-3-yl)oxy)methyl)phenyl)-3-methylbenzamide] |  |
| ≥ 7.30 | Cn1cc(-c2cnc(N)c(Oc3cccc(NC(=O)Nc4ccc(Cl)c(C(F)(F)F)c4)c3)c2)cn1 [Compound 348, 1-(3-((2-amino-5-(1-methyl-1H-pyrazol-4-yl)pyridin-3-yl)oxy)phenyl)-3-(4-chloro-3-(trifluoromethyl)phenyl)urea] |  |
| ≥ 7.30 | C[C@@H](Oc1cc(-c2cnn(C)c2)cnc1N)c1cccc(NC(=O)c2cccc(C3CC3)c2)c1 [Compound 174, (R)-N-(3-(1-((2-amino-5-(1-methyl-1H-pyrazol-4-yl)pyridin-3-yl)oxy)ethyl)phenyl)-cyclopropylbenzamide] |  |
| 6.30 to 7.29 | Cc1cccc(NC(=O)c2cccc([C@H](C)Oc3cc(Cl)cnc3N)c2)c1 [Compound 222, (S)-3-(1-((2-amino-5-chloropyridin-3-yl)oxy)ethyl)-N-(m-tolyl)benzamide] |  |
| ≥ 7.30 | C[C@@H](Oc1cc(-c2cnn(C)c2)cnc1N)c1cccc(NC(=O)c2ccc(C(F)(F)F)c(S(C)(=O)=O)c2)c1 [Compound 175, (R)-N-(3-(1-((2-amino-5-(1-methyl-1H-pyrazol-4-yl)pyridin-3-yl)oxy)ethyl)phenyl)-3-(methylsulfonyl)-4-(trifluoromethyl)benzamide] |  |
| 6.30 to 7.29 | Cc1cccc(C(=O)Nc2cccc([C@@H](C)Oc3cc(Cl)cnc3N)n2)c1 [Compound 141, (R)-N-(6-(1-((2-amino-5-chloropyridin-3-yl)oxy)ethyl)-pyridin-2-yl)-3-methylbenzamide] |  |
| 6.30 to 7.29 | Cc1cccc(C(=O)Nc2ccc(Cl)c([C@@H](C)Oc3cc(Cl)cnc3N)c2)c1Cl [Compound 95, (R)-N-(3-(1-((2-amino-5-chloropyridin-3-yl)oxy)ethyl)-4-chlorophenyl)-2-chloro-3-methylbenzamide] |  |
| ≥ 7.30 | Cc1cccc(C(=O)Nc2cccc([C@@H](C)Oc3cc(-c4cccnc4)cnc3N)c2)c1 [Compound 202, (R)-N-(3-(1-((6-amino-[3,3′-bipyridin]-5-yl)oxy)ethyl)phenyl)-3-methylbenzamide] |  |
| ≥ 7.30 | Cc1cccc(C(=O)Nc2cccc([C@H](C)Oc3cc(Cl)cnc3N)c2)c1Cl [Compound 64, (S)-N-(3-(1-((2-amino-5-chloropyridin-3-yl)oxy)ethyl)-phenyl)-2-chloro-3-methylbenzamide] |  |
| 6.30 to 7.29 | COc1cccc(C(=O)Nc2cc(C(C)Oc3cc(Cl)cnc3N)ccc2F)c1 (stereo not drawn) [Compound 318, N-(5-(1-((2-amino-5-chloropyridin-3-yl)oxy)ethyl)-2-fluorophenyl)-3-methoxybenzamide] |  |
| ≥ 7.30 | C[C@@H](Oc1cc(-c2cnn(C)c2)cnc1N)c1cccc(NC(=O)c2ccc3c(c2)CCC3)c1 [Compound 188, (R)-N-(3-(1-((2-amino-5-(1-methyl-1H-pyrazol-4-yl)pyridin-3-yl)oxy)ethyl)phenyl)-2,3-dihydro-1H-indene-5-carboxamide] |  |
| 6.30 to 7.29 | Cc1cccc(C(=O)Nc2cccc(Oc3cc(Cl)cnc3N)c2)c1 [Compound 305, N-(3-((2-amino-5-chloropyridin-3-yl)oxy)phenyl)-3-methyl-benzamide] |  |
| 5.00 to 6.30 | C[C@@H](Oc1cc(Cl)cnc1N)c1cccc(NC(=O)c2cccc(CN3CCN(C)CC3)c2)c1 [Compound 103, (R)-N-(3-(1-((2-amino-5-chloropyridin-3-yl)oxy)ethyl)-phenyl)-3-((4-methylpiperazin-1-yl)methyl)benzamide] |  |
| 6.30 to 7.29 | Cc1cccc(C(=O)Nc2cccc([C@@H](C)Oc3cncc(Cl)c3)c2)c1 [Compound 323, (R)—N-(3-(1-((5-chloropyridin-3-yl)oxy)ethyl)phenyl)-3-methylbenzamide] |  |
| ≥ 7.30 | CC(C)c1cccc(C(=O)Nc2cccc([C@@H](C)Oc3cc(-c4cnn(C)c4)cnc3N)c2)c1 [Compound 187, (R)-N-(3-(1-((2-amino-5-(1-methyl-1H-pyrazol-4-yl)pyridin-3-yl)oxy)ethyl)phenyl)-3-isopropylbenzamide] |  |
| 6.30 to 7.29 | C[C@@H](Oc1cncc(Cl)n1)c1cccc(NC(=O)c2cccc(C(F)(F)F)c2)c1 [Compound 327, (R)—N-(3-(1-((6-chloropyrazin-2-yl)oxy)ethyl)phenyl)-3-(trifluoromethyl)benzamide] |  |
| ≥ 7.30 | Cc1ccc(Cl)c(C(=O)Nc2cccc([C@@H](C)Oc3cc(Cl)cnc3N)c2)c1 [Compound 73, (R)-N-(3-(1-((2-amino-5-chloropyridin-3-yl)oxy)ethyl)-phenyl)-2-chloro-5-methylbenzamide] |  |
| ≥ 7.30 | Cc1cc(C)cc(C(=O)Nc2cccc([C@@H](C)Oc3cc(-c4cnn(C)c4)cnc3N)c2)c1 [Compound 171, (R)-N-(3-(1-((2-amino-5-(1-methyl-1H-pyrazol-4-yl)pyridin-3-yl)oxy)ethyl)phenyl)-3,5-dimethyl benzamide] |  |
